Assays:
human ETA receptor = biological target: T1, human ETA receptor (Homo sapiens, UniProt P25101); assay: In vitro antagonistic effect against human ETA receptor, Ca2+ signal in SK-N-MC cells; assay type: cell-based; settings: for IC50: SK-N-MC cells, response to 1 nM endothelin-1; for ETA/ETB selectivity: ratio of ETB IC50 to ETA IC50
T1 construct: endogenously expressed human ETA receptors in SK-N-MC cells; host or cells: SK-N-MC cells
T1 sequence (P25101 21-427): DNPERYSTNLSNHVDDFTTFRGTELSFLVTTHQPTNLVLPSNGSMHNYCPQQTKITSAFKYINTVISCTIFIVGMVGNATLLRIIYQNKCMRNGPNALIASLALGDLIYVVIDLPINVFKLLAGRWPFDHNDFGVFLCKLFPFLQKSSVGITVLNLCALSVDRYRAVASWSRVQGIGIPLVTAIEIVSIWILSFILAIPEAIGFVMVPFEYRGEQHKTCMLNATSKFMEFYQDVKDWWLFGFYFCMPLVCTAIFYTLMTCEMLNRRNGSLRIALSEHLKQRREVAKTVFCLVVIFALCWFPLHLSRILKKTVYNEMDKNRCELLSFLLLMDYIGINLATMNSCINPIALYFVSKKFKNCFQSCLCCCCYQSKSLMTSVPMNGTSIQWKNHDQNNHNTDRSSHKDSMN
Description: Experimental Embodiment 1: In Vitro Test of Antagonistic Effect Against Human ETA Receptor
Antagonistic activity of the compounds against endogenously expressed human ETA receptors in SK-N-MC cells was evaluated by measuring the effect of compounds on the changes in cytoplasmic Ca^2+ ion signal induced by human ETA receptor agonists using fluorescence detection methods. The functional activity of the ETA receptor antagonistic effect was tested in Eurofins-Cerep SA according to current standard procedures.
1. Cells were suspended in Dulbecco's modified Eagle medium solution (DMEM, Invitrogen) supplemented with 1% FCSd, then distributed in 384-well plate (100 μL/well) at a density of 5×10^4 cells/well;
2. Probenecid in Hank's balanced salt solution (HBSS, Invitrogen) supplemented with 20 mM 4-(2-hydroxyethyl)piperazine-1-ethanesulfonic acid (Hepes, Invitrogen) (pH 7.4) was mixed with fluorescent probe (Fluo4 NW, Invitrogen), the mixture was added to each wells, then balanced with cells at 37° C. for 60 minutes, and then balanced with cells at 22° C. for 15 minutes;
(§1) 3. The test plate was placed in a microplate reader (CellLux, PerkinElmer), a DMSO solution or HBSS buffer with an appropriate concentration of the test compound and the positive control was added, and 1 nM endothelin-1 or HBSS buffer (base control) was added after 5 minutes, and then the change in fluorescence intensity proportional to the concentration of Ca^2+ ions of free […] was measured;
5. Standard positive control was BQ-123, several concentrations were tested in each experiments. The data was analyzed using Prism to generate a concentration-response curve, and IC50 values of the compounds were calculated.

human ETB receptor = biological target: T2, human ETB receptor (Homo sapiens, UniProt P24530); assay: In vitro antagonistic effect against human ETB receptor, Ca2+ signal in transfected CHO cells; assay type: cell-based; settings: response to 0.3 nM endothelin-1
T2 construct: host or cells: CHO cells
T2 sequence (P24530 27-442): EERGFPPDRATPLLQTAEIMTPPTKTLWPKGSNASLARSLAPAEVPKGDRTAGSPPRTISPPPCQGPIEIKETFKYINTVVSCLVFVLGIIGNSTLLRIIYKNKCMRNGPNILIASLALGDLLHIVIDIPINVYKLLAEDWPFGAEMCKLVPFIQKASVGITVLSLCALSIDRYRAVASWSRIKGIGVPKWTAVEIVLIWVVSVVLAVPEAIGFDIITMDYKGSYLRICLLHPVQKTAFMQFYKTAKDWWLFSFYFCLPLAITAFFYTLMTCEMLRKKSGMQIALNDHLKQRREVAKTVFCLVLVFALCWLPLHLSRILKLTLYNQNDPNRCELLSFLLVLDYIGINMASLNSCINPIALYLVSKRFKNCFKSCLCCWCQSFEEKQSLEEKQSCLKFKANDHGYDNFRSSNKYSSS
Description: Antagonist activity of the compound against human ETB receptors expressed in transfected CHO cells was evaluated by measuring the effect of the compound on the changes in the cytoplasmic Ca^2+ ion signal induced by human ETB receptor agonists. The functional activity of the ETB receptor antagonistic effect was tested in Eurofins-Cerep SA according to current standard procedures.
1. Cells were suspended in DMEM buffer (Invitrogen) and then distributed in 384-well plate (100 μL/well) at a density of 3×10^4 cells/well;
2. Probenecid in HBSS buffer (Invitrogen) supplemented with 20 mM Hepes (Invitrogen) (pH 7.4) was mixed with fluorescent probe (Fluo4 NW, Invitrogen), the mixture was added to each wells, then balanced with cells at 37° C. for 60 minutes, and then balanced with cells at 22° C. for 15 minutes;
as §1, with “and 0.3” for “and 1”
4. Results were shown as the percent inhibition of control response to 0.3 nM endothelin-1;
5. Standard positive control was BQ-788, several concentrations were tested in each experiments. The data was analyzed using Prism to generate a concentration-response curve, and IC50 values of the compounds were calculated.

Row | Structure (SMILES) | IC50 (human ETA receptor) | ETA/ETB selectivity (human ETA receptor) | IC50 (human ETB receptor)
1 | CCCCNS(=O)(=O)Nc1ncnc(OCCOc2ncc(Br)cn2)c1-c1ccc2scnc2c1 [WX004] | 1.5 nM | 14000 | 21000 nM
2 | CCCOCCNS(=O)(=O)Nc1ncnc(OCCOc2ncc(Br)cn2)c1-c1ccc2scnc2c1 [WX006] | 1.3 nM | >230700 | > 300000 nM
3 | COCCCNS(=O)(=O)Nc1ncnc(OCCOc2ncc(Br)cn2)c1-c1ccc2scnc2c1 [WX007] | 2.1 nM | 16600 | 35000 nM
4 | CCNS(=O)(=O)Nc1ncnc(OCCOc2ncc(Br)cn2)c1-c1ccc2c(c1)OCO2 [WX009] | 2.3 nM | 30800 | 71000 nM
5 | O=S(=O)(NCC(F)(F)F)Nc1ncnc(OCCOc2ncc(Br)cn2)c1-c1ccc2c(c1)OCO2 [WX010] | 1.5 nM | 40600 | 61000 nM
6 | CCOCCNS(=O)(=O)Nc1ncnc(OCCOc2ncc(Br)cn2)c1-c1ccc2c(c1)OCO2 [WX015] | 0.86 nM | >348800 | > 300000 nM
7 | CCOCCCNS(=O)(=O)Nc1ncnc(OCCOc2ncc(Br)cn2)c1-c1ccc2c(c1)OCO2 [WX018] | 0.76 nM | 12600 | 9600 nM
8 | O=S(=O)(NCC1CCC1)Nc1ncnc(OCCOc2ncc(Br)cn2)c1-c1ccc2c(c1)OCO2 [WX020] | 0.35 nM | 48500 | 17000 nM
9 | O=S(=O)(NCC1CCCO1)Nc1ncnc(OCCOc2ncc(Br)cn2)c1-c1ccc2c(c1)OCO2 (stereo not drawn) [WX021] | 0.34 nM | 135200 | 46000 nM
10 | CS(=O)(=O)CCNS(=O)(=O)Nc1ncnc(OCCOc2ncc(Br)cn2)c1-c1ccc2c(c1)OCO2 [WX022] | 2.1 nM | 36100 | 76000 nM
11 | O=S(=O)(NCC1CC1)Nc1ncnc(OCCOc2ncc(Br)cn2)c1-c1ccc2ccnn2c1 [WX027] | 2.8 nM | 24200 | 68000 nM
12 | COCCNS(=O)(=O)Nc1ncnc(OCCOc2ncc(Br)cn2)c1-c1ccc2c(c1)OCC2 [WX030] | 1.3 nM | 25300 | 33000 nM
13 | O=S(=O)(Nc1ncnc(OCCOc2ncc(Br)cn2)c1-c1ccc2c(c1)OCC2)N1C[C@H]2C[C@H]2C1 [WX031] | 1.1 nM | >90900 | > 100000 nM
14 | CCCNS(=O)(=O)Nc1ncnc(OCCOc2ncc(Br)cn2)c1-c1ccc2c(c1)CCO2 [WX033] | 1.6 nM | >18700 | > 30000 nM

Next, values leading:

Row | IC50 (human ETA receptor) | ETA/ETB selectivity (human ETA receptor) | IC50 (human ETB receptor) | Structure (SMILES)
15 | 0.32 nM | 46800 | 15000 nM | O=S(=O)(NCC1CCCO1)Nc1ncnc(OCCOc2ncc(Br)cn2)c1-c1ccc2c(c1)OCO2 (single isomer, unassigned) [WX023]
16 | 0.25 nM | 26800 | 6700 nM | O=S(=O)(NCC1CCCO1)Nc1ncnc(OCCOc2ncc(Br)cn2)c1-c1ccc2c(c1)OCO2 (single isomer, unassigned) [WX024]
17 | 2.8 nM | >107000 | > 300000 nM | CCNS(=O)(=O)Nc1ncnc(OCCOc2ncc(Br)cn2)c1-c1ccc2scnc2c1 [WX002]
18 | 2.6 nM | 27300 | 71000 nM | O=S(=O)(NCC(F)(F)F)Nc1ncnc(OCCOc2ncc(Br)cn2)c1-c1ccc2scnc2c1 [WX003]
19 | 0.43 nM | 651100 | 280000 nM | CCCNS(=O)(=O)Nc1ncnc(OCCOc2ncc(Br)cn2)c1-c1ccc2c(c1)OCO2 [WX008]
20 | 1 nM | 22000 | 22000 nM | O=S(=O)(Nc1ncnc(OCCOc2ncc(Br)cn2)c1-c1ccc2c(c1)OCO2)NC1CCC1 [WX011]
21 | 0.17 nM | 94100 | 16000 nM | CCCCNS(=O)(=O)Nc1ncnc(OCCOc2ncc(Br)cn2)c1-c1ccc2c(c1)OCO2 [WX012]
22 | 1.3 nM | 26900 | 35000 nM | O=S(=O)(NCC1CC1)Nc1ncnc(OCCOc2ncc(Br)cn2)c1-c1ccc2c(c1)OCO2 [WX014]
23 | 0.79 nM | 27800 | 22000 nM | CCCOCCNS(=O)(=O)Nc1ncnc(OCCOc2ncc(Br)cn2)c1-c1ccc2c(c1)OCO2 [WX016]
24 | 0.45 nM | 35500 | 16000 nM | COCCCNS(=O)(=O)Nc1ncnc(OCCOc2ncc(Br)cn2)c1-c1ccc2c(c1)OCO2 [WX017]
25 | 0.44 nM | >68100 | > 30000 nM | O=S(=O)(NCC1CCOCC1)Nc1ncnc(OCCOc2ncc(Br)cn2)c1-c1ccc2c(c1)OCO2 [WX019]
26 | 1.1 nM | 66300 | 73000 nM | CCCCNS(=O)(=O)Nc1ncnc(OCCOc2ncc(Br)cn2)c1-c1ccc2ccnn2c1 [WX026]
27 | 2 nM | >50000 | > 100000 nM | O=S(=O)(Nc1ncnc(OCCOc2ncc(Br)cn2)c1-c1ccc2c(c1)OCC2)N1CCC2(CC1)CC2 [WX028]
28 | 0.65 nM | 24600 | 16000 nM | CCCNS(=O)(=O)Nc1ncnc(OCCOc2ncc(Br)cn2)c1-c1ccc2c(c1)OCC2 [WX029]
29 | 3 nM | >10000 | > 30000 nM | O=S(=O)(Nc1ncnc(OCCOc2ncc(Br)cn2)c1-c1ccc2c(c1)OCC2)N1CC2(COC2)C1 [WX032]
30 | 3.6 nM | 55500 | 200000 nM | COCCNS(=O)(=O)Nc1ncnc(OCCOc2ncc(Br)cn2)c1-c1ccc2c(c1)CCO2 [WX034]

Reference: US11319305B2, “Pyrimidine sulfamide derivative and preparation method and medical application thereof” (SHIJIAZHUANG SAGACITY NEW DRUG DEVELOPMENT CO., LTD., priority 2017, dated 2022)
